In PubChem BioAssay AID330 (DTP/NCI, 2004):
“And” between values parts separate entries of the source, which are not always exact repeats. Identical values can stand only once. Inconclusive results and toxic doses are left out. Peptide text beside a SMILES is read from it. * marks the point of attachment. Trt = c1ccc(C(c2ccccc2)(c2ccccc2)*)cc1; Cbz = O=C(OCc1ccccc1)*

Test system: P388 leukemia ip, CD2F1 mice, survival T/C
Test: NCI In Vivo Anticancer Drug Screen. Data for tumor model P388 Leukemia (intraperitoneal) in CD2F1 (CDF1) mice
Conditions: endpoint: median survival time, higher = longer survival
In short: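 Mice carrying the transplanted tumor received test compound or vehicle. Survival was recorded in each group, and the value is the treated-group measurement divided by that of the vehicle-treated control group.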

[1] = dose: 50.0 mg/kg/injection, schedule: Q01DX009 (ip), vehicle: saline with Tween-80
[2] = dose: 100.0 mg/kg/injection, schedule: Q01DX009 (ip), vehicle: saline with Tween-80
[3] = dose: 200.0 mg/kg/injection, schedule: Q01DX009 (ip), vehicle: saline with Tween-80

CC(CCC(=O)O)(c1ccc(O)cc1)c1ccc(O)cc1
T/C (dose: 100.0 mg/kg/injection, schedule: Q04DX003 (ip), vehicle: other): 95 % of control | T/C (dose: 200.0 mg/kg/injection, schedule: Q04DX003 (ip), vehicle: other): 95 % of control | T/C (dose: 400.0 mg/kg/injection, schedule: Q04DX003 (ip), vehicle: other): 90 % of control

CCCCCC(C)N (centres undefined)
T/C (dose: 12.5 mg/kg/injection, schedule: Q01DX009 (ip), vehicle: saline): 95 % of control | T/C (dose: 25.0 mg/kg/injection, schedule: Q01DX009 (ip), vehicle: saline): 90 % of control

C[n+]1ccc2cc(-c3ccccc3)c3ccccc3c2c1
T/C (dose: 1.56 mg/kg/injection, schedule: Q01DX009 (ip), vehicle: saline): 109 % of control | T/C (dose: 3.13 mg/kg/injection, schedule: Q01DX009 (ip), vehicle: saline): 116 % of control | T/C (dose: 6.25 mg/kg/injection, schedule: Q01DX009 (ip), vehicle: saline): 109 % of control

CCCC(O)(CC)/C(C)=N/O (centres undefined)
T/C [1]: 96 % of control | T/C [2]: 91 % of control | T/C [3]: 91 % of control

C=C1C[C@@H](O)C[C@@]2(C)C[C@@H]3OC(=O)C(=C)[C@@H]3C[C@H]12
T/C (dose: 12.5 mg/kg/injection, schedule: Q01DX009 (ip), vehicle: Klucel (hydroxypropylcellulose) (HPC)): 99 % of control | T/C (dose: 25.0 mg/kg/injection, schedule: Q01DX009 (ip), vehicle: Klucel (hydroxypropylcellulose) (HPC)): 111 % of control | T/C (dose: 50.0 mg/kg/injection, schedule: Q01DX009 (ip), vehicle: Klucel (hydroxypropylcellulose) (HPC)): 114 % of control | T/C (dose: 100.0 mg/kg/injection, schedule: Q01DX009 (ip), vehicle: Klucel (hydroxypropylcellulose) (HPC)): 114 % of control

N#C/C(=C1/OC(=N)C(c2c(Cl)cccc2Cl)C1=O)c1c(Cl)cccc1Cl (centres undefined)
T/C (dose: 50.0 mg/kg/injection, schedule: Q01DX005 (ip), vehicle: saline with Tween-80): 100 % of control | T/C (dose: 100.0 mg/kg/injection, schedule: Q01DX005 (ip), vehicle: saline with Tween-80): 101 % of control

COC(=O)C(CSC(c1ccccc1)(c1ccccc1)c1ccccc1)NC(=O)C(CC(N)=O)NC(=O)OCc1ccccc1 (stereo not drawn) (Cbz-Asn-Cys(Trt)-OMe; configuration not given here)
T/C (dose: 12.5 mg/kg/injection, schedule: Q01DX009 (ip), vehicle: distilled water + Tween-80): 92 % of control | T/C (dose: 25.0 mg/kg/injection, schedule: Q01DX009 (ip), vehicle: distilled water + Tween-80): 97 % of control | T/C (dose: 50.0 mg/kg/injection, schedule: Q01DX009 (ip), vehicle: distilled water + Tween-80): 122 % of control and 94 % of control | T/C (dose: 200.0 mg/kg/injection, schedule: Q01DX009 (ip), vehicle: distilled water + Tween-80): 163 % of control

CSc1ccc(N2C(=O)CSC2=O)cc1
T/C [1]: 106 % of control | T/C [2]: 114 % of control | T/C [3]: 109 % of control
